The record followed here is ChEMBL document CHEMBL1201862, “PubChem BioAssay data set” (2004).

Among the test systems are HL-60; U-251; SK-MEL-5; NCI-H23; MDA-MB-435; SW-620; A549; K562; IGROV-1; ACHN; OVCAR-8; SK-MEL-28; MOLT-4; SK-MEL-2; HT-29; UACC-257; CCRF-CEM; SR; UACC-62; HCT-116.
Common to all, as to assay: NCI tumour cell line growth inhibition, 48 h

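The compound was tested at five concentrations on cells cultured in 96-well plates, with a 48-hour exposure period. GI50 is the concentration that inhibits growth by half.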 Active and inactive are the calls of the source. Rule as the data show it: active = GI50 up to about 1.1 µM and inactive = higher. A value given as a limit tells only on which side of the number the result lay.

In the case of `Cc1ccc(S(=O)(=O)NNC(=O)Nc2ccc(Cl)cc2)cc1`, the GI50 in the test with HL-60 was > 100 µM (inactive); in the test with U-251, > 100 µM (inactive); with SK-MEL-5 it was 53 µM (inactive); with NCI-H23 it was > 100 µM (inactive); with MDA-MB-435, > 100 µM (inactive); in the test with SW-620, > 100 µM (inactive). The GI50 was > 100 µM (inactive) with A549; 4.26 µM (inactive) in the test with K562; > 100 µM (inactive) with IGROV-1; 6.22 µM (inactive) in the test with ACHN; > 100 µM (inactive) in the test on OVCAR-8; > 100 µM (inactive) with SK-MEL-28. Besides, the GI50 with MOLT-4, in the test on SK-MEL-2, in the test on HT-29, in the test with UACC-257, in the test with CCRF-CEM and in the test on SR was > 100 µM (inactive) each time. The GI50 in the test on UACC-62 and in the test with HCT-116 was > 100 µM (inactive) each time.

Take `O=c1ccc2ccc(CBr)cc2o1`: the GI50 in the test with HL-60 was 1.76 µM (inactive); in the test with U-251, 1.81 µM (inactive); in the test with SK-MEL-5, 2.79 µM (inactive); in the test on NCI-H23 it was 2.92 µM (inactive); in the test with MDA-MB-435, 3.14 µM (inactive); in the test on SW-620, 1.72 µM (inactive). The GI50 in the test on A549 was 15.5 µM (inactive); with K562, 2.18 µM (inactive); in the test on IGROV-1, 3.57 µM (inactive); in the test with OVCAR-8, 2.05 µM (inactive); with SK-MEL-28, 13.6 µM (inactive); in the test with MOLT-4, 2.29 µM (inactive). Besides, the GI50 in the test on SK-MEL-2 was 11.4 µM (inactive); in the test on HT-29, 2.48 µM (inactive); in the test on UACC-257, 11.7 µM (inactive); with CCRF-CEM it was 1.78 µM (inactive); in the test with SR, 2.2 µM (inactive); with UACC-62 it was 10.8 µM (inactive). Moreover, the GI50 in the test on HCT-116 is 1.88 µM (inactive).

As to `CC(=O)c1c(-c2ccccc2)c(-c2ccc(OCCN(C)C)cc2)n2ccccc12`, the GI50 with HL-60 was 16.3 µM (inactive); in the test with U-251, 17 µM (inactive); in the test on SK-MEL-5, 10.3 µM (inactive); with NCI-H23, 18.7 µM (inactive); in the test with MDA-MB-435, 17.7 µM (inactive); in the test with SW-620, 17.9 µM (inactive). In addition, the GI50 in the test on A549 was 21.2 µM (inactive); in the test with K562, 13.4 µM (inactive); in the test on IGROV-1, 16.6 µM (inactive); in the test on ACHN, 15.8 µM (inactive); with OVCAR-8 it was 14.9 µM (inactive); in the test with SK-MEL-28 it was 15.2 µM (inactive). Besides, the GI50 in the test on MOLT-4 was 15 µM (inactive); in the test with SK-MEL-2, 19.1 µM (inactive); in the test on HT-29, 3.44 µM (inactive); with UACC-257, 15.5 µM (inactive); in the test with CCRF-CEM it was 21 µM (inactive); in the test with UACC-62, 15.7 µM (inactive). The GI50 with HCT-116 was 13.3 µM (inactive).

On to `COc1ccc2nc(-n3c(/C=C/c4ccccc4O)nc4ccccc4c3=O)sc2c1`, for which the GI50 in the test on HL-60 was 43.4 µM (inactive); in the test on U-251, > 100 µM (inactive); with SK-MEL-5 it was 19.7 µM (inactive); in the test on NCI-H23, 47.6 µM (inactive); with MDA-MB-435, 19.7 µM (inactive); in the test on SW-620, > 100 µM (inactive). In addition, the GI50 is 39.4 µM (inactive) in the test on A549; 20.4 µM (inactive) in the test with K562; 39.6 µM (inactive) in the test on IGROV-1; > 100 µM (inactive) with ACHN; > 100 µM (inactive) in the test on OVCAR-8; 31.4 µM (inactive) with SK-MEL-28. The GI50 in the test with MOLT-4 was 32.9 µM (inactive); in the test with SK-MEL-2, 88.3 µM (inactive); with HT-29, 50.2 µM (inactive); with UACC-257, > 100 µM (inactive); in the test with CCRF-CEM, 16.1 µM (inactive); in the test with UACC-62 it was 61.5 µM (inactive). Further, the GI50 in the test with HCT-116 was 25.5 µM (inactive).

For the compound `COc1ccc(NC(C)=O)cc1N1C(=O)/C(=C\c2ccccc2)SC1c1cc(OC)c(OC)c(OC)c1` (stereo not drawn), the GI50 with HL-60 was 26.8 µM (inactive); with U-251, 32.5 µM (inactive); in the test with SK-MEL-5, 12 µM (inactive); in the test with NCI-H23, 36.5 µM (inactive); in the test on MDA-MB-435 it was 24.9 µM (inactive); with SW-620, 40.4 µM (inactive). Further, the GI50 is 30.1 µM (inactive) in the test with A549; 33.7 µM (inactive) in the test on K562; 25.9 µM (inactive) with IGROV-1; 39.2 µM (inactive) in the test on ACHN; 23.1 µM (inactive) in the test on OVCAR-8; 80.7 µM (inactive) in the test with SK-MEL-28. The GI50 is 25.6 µM (inactive) in the test on MOLT-4; 31.8 µM (inactive) in the test on SK-MEL-2; 32.4 µM (inactive) in the test with HT-29; > 100 µM (inactive) in the test with UACC-257; 21.2 µM (inactive) in the test with CCRF-CEM; 37.8 µM (inactive) in the test with SR. The GI50 with UACC-62 was 30.4 µM (inactive); in the test with HCT-116 it was 14.4 µM (inactive).

Regarding `C=C1CC(Cn2cc(Br)c(=O)[nH]c2=O)(c2ccc(Br)cc2)OC1=O` (stereo not drawn), the GI50 in the test with HL-60 was 0.621 µM (active); with U-251, 13.3 µM (inactive); in the test on SK-MEL-5, 3.01 µM (inactive); in the test on NCI-H23 it was 3.81 µM (inactive); with MDA-MB-435, 2.88 µM (inactive); with SW-620, 1.49 µM (inactive). The GI50 in the test on A549 was 14.8 µM (inactive); with K562 it was 0.644 µM (active); in the test on IGROV-1, 1.89 µM (inactive); with ACHN, 3.66 µM (inactive); in the test with OVCAR-8 it was 15.3 µM (inactive); in the test with SK-MEL-28, 7.19 µM (inactive). Moreover, the GI50 with MOLT-4 was 1.79 µM (inactive); in the test on SK-MEL-2, 1.72 µM (inactive); in the test on HT-29 it was 2.3 µM (inactive); in the test on UACC-257 it was 1.82 µM (inactive); in the test with CCRF-CEM, 0.614 µM (active); in the test on SR, 1.52 µM (inactive). Moreover, the GI50 in the test on UACC-62 was 2.4 µM (inactive); in the test with HCT-116, 1.36 µM (inactive).

On to `Cc1ccc(S(=O)(=O)OCCN(CCOS(=O)(=O)c2ccc(C)cc2)c2ccc(C=O)cc2)cc1`, for which the GI50 in the test with HL-60 was 42.3 µM (inactive); with U-251 it was 24.3 µM (inactive); in the test on SK-MEL-5, 32.9 µM (inactive); with NCI-H23 it was 36.2 µM (inactive); with MDA-MB-435, 21.4 µM (inactive); with SW-620 it was 29.6 µM (inactive). Moreover, the GI50 with A549 was 32.5 µM (inactive); with K562 it was 38.4 µM (inactive); in the test with IGROV-1, 36.1 µM (inactive); in the test on ACHN, 33.6 µM (inactive); in the test with OVCAR-8, 41.8 µM (inactive); in the test on SK-MEL-28, 31.4 µM (inactive). The GI50 with MOLT-4 was 32.4 µM (inactive); with SK-MEL-2, 16.5 µM (inactive); with HT-29 it was 32.1 µM (inactive); in the test with UACC-257, 24.8 µM (inactive); in the test on CCRF-CEM it was 34.8 µM (inactive); with UACC-62 it was 20 µM (inactive). Besides, the GI50 in the test on HCT-116 was 30.1 µM (inactive).

In the case of `CO[C@H]1SC[C@H](OC(C)=O)[C@H](OC(C)=O)[C@H]1OC(C)=O`, the GI50 in the test on HL-60, in the test on U-251, in the test with SK-MEL-5, in the test on NCI-H23, in the test on MDA-MB-435 and in the test on SW-620 was > 100 µM (inactive) each time. The GI50 with A549, with K562, with IGROV-1, with ACHN, in the test with OVCAR-8 and in the test with SK-MEL-28 was > 100 µM (inactive) in each case. Moreover, the GI50 in the test with MOLT-4, in the test with SK-MEL-2, in the test with HT-29, in the test on UACC-257, in the test on CCRF-CEM and in the test with SR was > 100 µM (inactive) each time. For the same compound, the GI50 in the test on UACC-62 was 93.8 µM (inactive); in the test on HCT-116, > 100 µM (inactive).

Turning to `COC(=O)C1=Nc2c(C)nn(-c3ccccc3)c2N=C(c2ccccc2)C1`, the GI50 in the test on HL-60, with U-251, in the test on SK-MEL-5, with NCI-H23, with MDA-MB-435 and with SW-620 was > 10 µM (inactive) throughout. Besides, the GI50 with A549, in the test with K562, in the test on IGROV-1, in the test with ACHN, with OVCAR-8 and with SK-MEL-28 was > 10 µM (inactive) in each case. Further, the GI50 in the test on MOLT-4, with HT-29, in the test with UACC-257, with SR, with UACC-62 and in the test on HCT-116 was > 10 µM (inactive) throughout.

Turning to `O=c1c(C(c2ccc(OCc3ccccc3)cc2)c2c(O)oc3ccccc3c2=O)c(O)oc2ccccc12`, the GI50 is 32.8 µM (inactive) with HL-60; 39.5 µM (inactive) in the test with U-251; 29.6 µM (inactive) in the test with SK-MEL-5; 35.7 µM (inactive) in the test on NCI-H23; 41.9 µM (inactive) in the test on MDA-MB-435; 57.4 µM (inactive) in the test on SW-620. The GI50 is 40.9 µM (inactive) in the test on A549; 10 µM (inactive) in the test with K562; 77.4 µM (inactive) in the test with IGROV-1; 23.4 µM (inactive) in the test on ACHN; 33.4 µM (inactive) with OVCAR-8; 78 µM (inactive) in the test on SK-MEL-28. Moreover, the GI50 is 37.3 µM (inactive) in the test with MOLT-4; 61.1 µM (inactive) in the test with SK-MEL-2; 33 µM (inactive) in the test with HT-29; 78.9 µM (inactive) in the test with UACC-257; 38.2 µM (inactive) in the test on CCRF-CEM; 37.5 µM (inactive) with UACC-62. Also, the GI50 with HCT-116 was 36.8 µM (inactive).
